Source: patent EP0426029A1, “Injectable formulation for lipophilic drugs” (ABBOTT LABORATORIES, priority 1989, dated 1991)

System: mice
Assay: Mouse scratch test (irritation/pain at the injection site)
Type: in vivo
Experimental: A scratch test was conducted in mice to measure the response to the sensation of irritation, i.e., the pain associated with an injection. Formulations were administered subcutaneously at a dose of 5 ml/kg to groups of mice (10/group) weighing 20 to 40 g each. The number of times that each mouse scratched the injection site was then counted for exactly five minutes.

CC[C@H]1OC(=O)[C@H](C)[C@@H](O[C@H]2C[C@@](C)(OC)[C@@H](O)[C@H](C)O2)[C@H](C)[C@@H](O[C@@H]2O[C@H](C)C[C@H](N(C)C)[C@H]2O)[C@](C)(OC)C[C@@H](C)C(=O)[C@H](C)[C@@H](O)[C@]1(C)O [Clarithromycin Lactobionate, Clarithromycin lactobionate]
No. of Scratches (Table I, subcutaneous, 5 ml/kg, mice (10/group), scratches of injection site counted for five minutes, 5 mg/ml in clarithromycin): 22.0 ± 7.2 | NO. OF SCRATCHES (Table II, mouse scratch test, all solutions 5 mg/ml clarithromycin, pH as shown in formulation): 15.1 ± 4.4
